Results taken from patent US10053458B2, “Pyrimidine-2,4-diamine derivative and anticancer pharmaceutical composition comprising same as effective ingredient” (KOREA RESEARCH INSTITUTE OF CHEMICAL TECHNOLOGY, priority 2014, dated 2018).

What was measured:
[1] = tested on: H3122; assay: Cancer cell proliferation inhibition (SRB/MTS), H3122; details: Homo sapiens, NCI-H3122, 72 h, read-out: H3122 GI50
Method: (§1) Cancer cell lines used in the experiments were all human-derived cancer cell lines, specifically H2228 and H3122, which are non-small cell lung cancer cell lines.
(§2) The cancer cell proliferation inhibition was measured using the MTS assay as follows. […] Each culture medium was placed in an incubator for 4 hours, taken out and left at room temperature for 10 minutes.

[2] = tested on: H2228; assay: Cancer cell proliferation inhibition (SRB/MTS), H2228; details: Homo sapiens, NCI-H2228, 72 h, read-out: H2228 GI50
Method: as §1, §2

[3] = tested on: BaF3 EML4-ALK WT cells; assay: Cytotoxicity on BaF3 cell transfected with EML4-ALK WT (WST-1); details: Ba/F3 EML4-ALK, 72 h, read-out: BaF3 EML4-ALK WT, IC50 of the cytotoxicity

Row | Structure (SMILES) | GI50 [1] [nM] | GI50 [2] [nM] | IC50 [3] [nM]
1 | COc1cc2c(cc1Nc1ncc(Cl)c(Nc3ccccc3S(=O)(=O)C(C)C)n1)C(C)(C)NCC2 [Example 72, 5-chloro-N4-(2-(isopropylsulfonyl)phenyl)-N2-(6-methoxy-1,1-dimethyl-1,2,3,4-tetrahydroisoquinolin-7-yl)pyrimidine-2,4-diamine] | < 50 | < 50 | < 50
2 | COc1cc2c(cc1Nc1ncc(Cl)c(Nc3ccccc3S(=O)(=O)C(C)C)n1)C1(CCCCC1)CNC2 [Example 16, 5-chloro-N4-(2-(isopropylsulfonyl)phenyl)-N2-(7-methoxy-2,3-dihydro-1H-spiro[cyclohexane-1,4-isoquinoline]-6-yl)pyrimidine-2,4-diamine] | < 50 | < 50 | < 50
3 | COc1cc2c(cc1Nc1ncc(Cl)c(Nc3ccccc3S(=O)(=O)C(C)C)n1)CNCC2(C)C [Example 75, 5-chloro-N4-(2-(isopropylsulfonyl)phenyl)-N2-(6-methoxy-4,4-dimethyl-1,2,3,4-tetrahydroisoquinolin-7-yl)pyrimidine-2,4-diamine] | < 50 | < 50 | < 50
4 | COc1c(Nc2ncc(Cl)c(Nc3ccccc3S(=O)(=O)C(C)C)n2)cc2c(c1Cl)C(C)(C)NCC2 [Example 90, 5-chloro-N4-(2-(isopropylsulfonyl)phenyl)-N2-(8-chloro-7-methoxy-1,1-dimethyl-1,2,3,4-tetrahydroisoquinolin-6-yl)pyrimidine-2,4-diamine] | < 50 | < 50 | < 50
5 | CCC1(CC)NCCc2cc(Nc3ncc(Cl)c(Nc4ccccc4S(=O)(=O)C(C)C)n3)c(OC)cc21 [Example 74, 5-chloro-N4-(2-(isopropylsulfonyl)phenyl)-N2-(1,1-diethyl-7-methoxy-1,2,3,4-tetrahydroisoquinolin-6-yl)pyrimidine-2,4-diamine] | < 50 | < 50 | < 50
6 | COc1cc2c(cc1Nc1ncc(Cl)c(Nc3ccccc3S(=O)(=O)C(C)C)n1)CCN(C(=O)C(F)(F)F)C2(C)C [Example 32, 1-(6-(5-chloro-4-(2-(isopropylsulfonyl)phenylamino)pyrimidin-2-yl)amino-7-methoxy-1,1-dimethyl-3,4-dihydroisoquinolin-2(1H)-yl)-2,2,2-trifluoroethane-1-one] | < 50 | < 50 | < 50
7 | COc1cc2c(c(Br)c1Nc1ncc(Cl)c(Nc3ccccc3S(=O)(=O)C(C)C)n1)CCNC2(C)C [Example 87, 5-chloro-N4-(2-(isopropylsulfonyl)phenyl)-N2-(5-bromo-7-methoxy-1,1-dimethyl-1,2,3,4-tetrahydroisoquinolin-6-yl)pyrimidine-2,4-diamine] | < 50 | < 50 | < 50
8 | COc1cc2c(cc1Nc1ncc(Cl)c(Nc3ccccc3S(=O)(=O)C(C)C)n1)CN(C(=O)CO)CC2(C)C [Example 95] | < 50 | < 50 | < 50
9 | CCOc1cc2c(cc1Nc1ncc(Cl)c(Nc3ccccc3S(=O)(=O)C(C)C)n1)CN(CC)CC2(C)C [Example 81, 5-chloro-N4-(2-(isopropylsulfonyl)phenyl)-N2-(6-ethoxy-2-ethyl-4,4-dimethyl-1,2,3,4-tetrahydroisoquinolin-7-yl)pyrimidine-2,4-diamine] | < 50 | < 50 | < 50
10 | COc1cc2c(cc1Nc1ncc(Cl)c(Nc3ccccc3S(=O)(=O)C(C)C)n1)CCN(C(=O)CO)C2(C)C [Example 78, 1-6-(5-chloro-4-(2-(isopropylsulfonyl)phenylamino)pyrimidin-2-yl)amino-7-methoxy-1,1-dimethyl-3,4-dihydroisoquinolin-2(1H)-yl-2-hydroxyethane-1-one] | < 50 | < 50 | < 50
11 | COc1cc2c(cc1Nc1ncc(Cl)c(Nc3ccccc3S(=O)(=O)C(C)C)n1)CNC2 [Example 1, 5-chloro-N4-(2-(isopropylsulfonyl)phenyl)-N2-(6-methoxyisoindolin-5-yl)pyrimidine-2,4-diamine] | < 50 | 15 | < 50
12 | COc1cc2c(cc1Nc1ncc(Cl)c(Nc3ccccc3S(=O)(=O)C(C)C)n1)CCN(C1CCNCC1)C2 [Example 24] | < 50 | < 50 | < 50
13 | COc1cc2c(cc1Nc1ncc(Cl)c(Nc3ccccc3S(=O)(=O)C(C)C)n1)C1(CCCC1)CN(C(=O)C(F)(F)F)C2 [Example 13, 1-(6-(5-chloro-4-(2-(isopropylsulfonyl)phenylamino)pyrimidin-2-yl)amino-7-methoxy-1H-spiro[cyclopentane-1,4-isoquinoline]-2(3H)-yl)-2,2,2-trifluoroethane-1-one] | < 50 | < 50 | < 50
14 | COc1cc2c(cc1Nc1ncc(Cl)c(Nc3ccccc3S(=O)(=O)C(C)C)n1)CCCNC2(C)C [Example 104, 5-chloro-N4-(2-(isopropylsulfonyl)phenyl)-N2-(8-methoxy-1,1-dimethyl-2,3,4,5-tetrahydro-1H-benzo[c]azepin-7-yl)pyrimidine-2,4-diamine] | < 50 | < 50 | < 50
15 | COc1cc2c(cc1Nc1ncc(Cl)c(Nc3ccccc3S(=O)(=O)C(C)C)n1)CN(C)CC2(C)C [Example 91, 5-chloro-N4-(2-(isopropylsulfonyl)phenyl)-N2-(6-methoxy-2,4,4-trimethyl-1,2,3,4-tetrahydroisoquinolin-7-yl)pyrimidine-2,4-diamine] | < 50 | < 50 | < 50
16 | COc1cc2c(cc1Nc1ncc(Cl)c(Nc3ccccc3S(=O)(=O)C(C)C)n1)CC1(CC1)N(C(=O)C(F)(F)F)C2C (stereo not drawn) [Example 29] | < 50 | < 50 | < 50
17 | CC(C)Oc1cc2c(cc1Nc1ncc(Cl)c(Nc3ccccc3S(=O)(=O)C(C)C)n1)CCNC2C (stereo not drawn) [Example 70, 5-chloro-N4-(2-(isopropylsulfonyl)phenyl)-N2-(7-isopropoxy-1-methyl-1,2,3,4-tetrahydroisoquinolin 6 yl)pyrimidine-2,4-diamine] | < 50 | < 50 | < 50
18 | COc1cc2c(cc1Nc1ncc(Cl)c(Nc3ccccc3S(=O)(=O)C(C)C)n1)C1CNCCN1CC2(C)C (stereo not drawn) [Example 86, 5-chloro-N4-(2-(isopropylsulfonyl)phenyl)-N2-(9-methoxy-7,7-dimethyl-1,3,4,6,7,11b-hexahydro-2H-pyrazino[2,1-a]isoquinolin-10-yl)pyrimidine-2,4-diamine] | < 50 | < 50 | < 50
19 | CC(C)Oc1cc2c(cc1Nc1ncc(Cl)c(Nc3ccccc3S(=O)(=O)C(C)C)n1)CCN(C(=O)C(F)(F)F)C2 [Example 17, 1-(6-(5-chloro-4-(2-(isopropylsulfonyl)phenylamino)pyrimidin-2-yl)amino-7-isopropoxy-3,4-dihydroisoquinolin-2(1H)-yl)-2,2,2-trifluoroethane-1-one] | < 50 | < 50 | < 50
20 | CCCC1NCCc2cc(Nc3ncc(Cl)c(Nc4ccccc4S(=O)(=O)C(C)C)n3)c(OC)cc21 (stereo not drawn) [Example 102, 5-chloro-N4-(2-(isopropylsulfonyl)phenyl)-N2-(7-methoxy-1-propyl-1,2,3,4-tetrahydroisoquinolin-6-yl)pyrimidine-2,4-diamine] | < 50 | < 50 | < 50
21 | CC(C)Oc1cc2c(cc1Nc1ncc(Cl)c(Nc3ccccc3S(=O)(=O)C(C)C)n1)CCNC2(C)C [Example 71, 5-chloro-N4-(2-(isopropylsulfonyl)phenyl)-N2-(7-isopropoxy-1,1-dimethyl-1,2,3,4-tetrahydroisoquinolin-6-yl)pyrimidine-2,4-diamine] | < 50 | < 50 | < 50
22 | CCN1Cc2cc(Nc3ncc(Cl)c(Nc4ccccc4S(=O)(=O)C(C)C)n3)c(OC(C)C)cc2C(C)(C)C1 [Example 82, 5-chloro-N4-(2-(isopropylsulfonyl)phenyl)-N2-(2-ethyl-6-isopropoxy-4,4-dimethyl-1,2,3,4-tetrahydroisoquinolin-7-yl)pyrimidine-2,4-diamine] | < 50 | < 50 | < 50
23 | CCC1(C)NCCc2cc(Nc3ncc(Cl)c(Nc4ccccc4S(=O)(=O)C(C)C)n3)c(OC)cc21 (stereo not drawn) [Example 73, 5-chloro-N4-(2-(isopropylsulfonyl)phenyl)-N2-(l-ethyl-7-methoxy-1-methyl-1,2,3,4-tetrahydroisoquinolin-6-yl)pyrimidine-2,4-diamine] | < 50 | < 50 | < 50
24 | COc1cc2c(cc1Nc1ncc(Cl)c(Nc3ccccc3S(=O)(=O)C(C)C)n1)CCN(Cc1ccccc1)C2(C)C [Example 31, 5-chloro-N4-(2-(isopropylsulfonyl)phenyl)-N2-(2-benzyl-7-methoxy-1,1-dimethyl-1,2,3,4-tetrahydroisoquinolin-6-yl)pyrimidine-2,4-diamine] | < 50 | < 50 | < 50
25 | COc1cc2c(cc1Nc1ncc(Cl)c(Nc3ccccc3S(=O)(=O)C(C)C)n1)C(C)(C)CN(C(=O)C(F)(F)F)C2 [Example 11, 1-(6-(5-chloro-4-(2-(isopropylsulfonyl)phenylamino)pyrimidin-2-yl)amino-7-methoxy-4,4-dimethyl-3,4-dihydroisoquinolin-2(1H)-yl)-2,2,2-trifluoroethane-1-one] | < 50 | < 50 | < 50
26 | COc1cc2c(cc1Nc1ncc(Cl)c(Nc3ccccc3S(=O)(=O)C(C)C)n1)CCNC2C(C)C (stereo not drawn) [Example 28] | 21 | < 50 | 13
